Results on 12 compounds are retold here after patent publication US11725006B2, “Hydrophilic berberine-type derivative and application thereof in preparing drug” (INSTITUTE OF MATERIA MEDICA, CHINESE ACADEMY OF MEDICAL …, priority 2018, dated 2023).

In series [1] the test system is colorectal cancer model mice induced by AOM/DSS. As to the kind of experiment: Colorectal cancer model mice induced by AOM/DSS. It is filed as in vivo, C57b1/6j mice. To be noted: 250 mg/kg by gavage, two weeks on, one week off, 12 weeks.
Protocol: C57b1/6j mice were randomly grouped according to the above experimental grouping scheme, five mice in the normal control group, and ten other groups.
After one week's normal pre-feeding, normal feeding was done for another two weeks. From the 3rd week on, 0.5% carboxymethylcellulose sodium water solution was administered by gavage in the amount of 10 ml/kg. Administration mode was such that the drug was administered once a day for 12 weeks until the end of the experiment.
After one week of normal pre-feeding, AOM was given by intraperitoneal injection at a dose of 10 mg/kg (Prepared by a concentration of 10 mg AOM in 10 ml of normal saline). Then the animals were fed normally for one week, which was recorded as the first week of the experiment. At the beginning of the second week, mice were allowed to drink the drinking aqueous solution containing 2% DSS freely for one week. […] From the 3rd week on, 0.5% carboxymethylcellulose sodium water solution was administrated by gavage at the amount of 10 ml/kg. The administration mode was such that the drug was administered once a day for 12 weeks until the end of the experiment. (3) Positive Drug Capecitabine Group
After one week of normal pre-feeding, AOM was given by intraperitoneal injection at a dose of 10 mg/kg (Prepared by a concentration of 10 mg AOM in 10 ml of normal saline). Then the animals were fed normally for one week, which was recorded as the first week of the experiment. At the beginning of the second week, mice were allowed to drink the drinking water solution containing 2% DSS freely for one week. […] The administration lasted for 12 weeks (including the weeks of drug withdrawal).
After one week of normal pre-feeding, AOM was given by intraperitoneal injection at a dose of 10 mg/kg (prepared by a concentration of 10 mg AOM in 10 ml of normal saline). Then the animals were fed normally for one week, which was recorded as the first week of the experiment. At the beginning of the second week, mice were allowed to drink the drinking water solution containing 2% DSS freely for one week. […] The administration mode was such that the drug was administered once a day, up to the end of the experiment. The administration lasted for 12 weeks.
The calculation method of calculated tumor burden value is as follows: Tumor burden=(Mean tumor diameter/numbers of mice)^2×(Tumor number/numbers of mice)
Series [2] in a line: Alcohol-solubility examination in 95% ethanol under refluxing. It is filed as physicochemical. The following applies: per gram of compound, within 30 minutes. As for the experimental part:
The compounds of the invention were weighed and placed into different amount of 95% ethanol solvent under refluxing, respectively. The dissolution status within 30 minutes was observed. If there were no visible solute particle, it would be regarded as complete dissolution.

Series [3] is described as follows: Hydrosolubility examination in pure water. It counts as physicochemical. To be noted: per milliliter of purified water, 25° C.±2° C., visual, within 30 minutes. Here is the method: The compounds of the invention were weighed and placed into a certain amount of pure water solvent under 25° C.±2° C., respectively. […] If there were no visible solute particle, it would be regarded as complete dissolution.

The test system of series [4] is C57b1/6j mice model of ulcerative colitis induced by DSS. Kind of series: Acute ulcerative colitis model induced by dextran sodium sulfate (DSS). It is filed as in vivo. The following applies: for Percentage of colon contracture: compared to colon length in normal control group; for body weight loss percentage: compared with body weight at the beginning of the experiment; for Body weight change rate: end versus start. As for the experimental part:
(1) Animals: C57b1/6j mice, male (20-22 g); seven mice in each group.
(3) Dosage and times of administration: The positive drug was 500 mg/kg, both dihydrocoptisine and the compounds of the invention were 100 mg/kg, once a day for eight days.
(4) Experimental methods: The method of this experiment was a literature method: see Zhi-Hui Zhang, Hai-Jing Zhang, An-Jun Deng, Bo Wang, Zhi-Hong Li,
Yang Liu, Lian-Qiu Wu, Wen-Jie Wang, and Hai-Lin Qin. Synthesis and Structure-activity Relationships of Quaternary Coptisine Derivatives as Potential Anti-ulcerative Colitis Agents. Journal of Medicinal Chemistry. 2015, 58, 7557-7571.
The effect of the compounds of the invention on the disease activity index (DAI) and the inhibition rate of DAI in the C57b1/6j mice model of ulcerative colitis induced by DSS was investigated. […] In Table 5, **, P<0.01, compared with the normal control group; ^#, P<0.05 and ^##, P<0.01, compared with the model group.

The test system of series [5] is acute ear swelling model of mice caused by croton oil. As to the kind of experiment: Acute ear swelling model of mice caused by croton oil. It is filed as in vivo, Balb/c mice. The following applies: 5 mg/kg by gavage.
Protocol: (1) Animals: Balb/c mice, male (20-22 g); eight mice in each group.
(4) Experimental methods: the mice in the model group were administrated 0.9% normal saline (dosage volume: 10 ml/kg) by the intragastrical administration. In the positive drug group, the positive drug was prepared by 5 mg/kg of dosage using 0.9% normal saline as the solvent and was administrated by gavage (dosage volume: 10 ml/kg). In the compounds of the invention administration groups, the compounds were prepared by 100 mg/kg of dosage using 0.9% normal saline as the solvent and were administrated by gavage (dosage volume: 10 ml/kg). After the last administration, all mice were induced to inflammation by daubing 20 μl of croton oil acetone solution on both sides of the right ear, the left ear not daubed as normal control ear. After 4 hours of modeling, the mice were killed, the ears were cut off along the auricle baseline, and the ear pieces of each subject were taken off at the counterpart place of each ear with a perforator and weighed. The difference between the weight of the right ear piece and that of the left ear piece indicated the degree of inflammatory swelling. The inhibition rate of drugs on ear swelling (%) was calculated by comparing the ear swelling degree values of each administration group and positive drug group with the data of model group. Inhibition rate (%)=[(swelling degree of model group−swelling degree of administration group)/swelling degree of model group]×100 (%)
(5) Statistical analysis: The experimental results were expressed as ‘mean±sd’. The statistical differences between the two groups were calculated and analyzed by t-test method. ^#, indicates P<0.05 (compared with the model group); and ^##, P<0.01 (compared with the model group).
Series [6] relates to Escherichia coli. As to the kind of experiment: MIC by twofold microdilution broth method. To be noted: 24 h, read-out: MIC E. coli. It counts as cell-based. As for the experimental part:
(§1) (1) Strains: Staphylococcus aureus, Escherichia colt, Candida albicans MCC (F) 98001.
(§2) (2) Experimental method: the anti-bacterial activity of the compounds of the invention was evaluated by determining the minimum inhibitory concentration (MIC) using the twofold microdilution broth method. The compounds of the invention and the reference substances (quaternary ammonium salt substrates of berberine-type alkaloids and levofloxacin) were prepared into a 20000 μg/ml stock solution with DMSO for use. S. aureus and E. coli were diluted using MHB (Mueller Hinton Broth) medium, and C. albicans using Sabouraud medium, all prepared into 10^6 CFU (colony forming unit) concentration as bacterial suspensions for use. The determination steps of MIC are as follows. First, 180 μl of MHB medium (for S. aureus and E. coli) or Sabouraud Medium (for C. albicans) was transferred to the first well in each row of the sterile 96 well plate, and 100 μl to the second to the 11th wells of each row, and 200 μl to the 12th well as negative blank control well. 20 μl sample stock solution was taken and added to the first well. After mixed up, 100 μl was taken from the first well and transferred to the second well. The same as mentioned above, the second well was mixed up, 100 μl of mixed content was taken from the second well and added to the third well, as described above. As such, the same operation was continued till the 10th well, and finally 100 μl of content was drawn from the 10th well and discarded. The bacterial suspension of 100 μl was added to each of the aforementioned from first to eleven wells and mixed up. Three parallel groups for each sample were set up. The 96 well plates were put into the incubator to culture for 24 h. […] The MIC values of each sample to be tested as well as those of the references were observed and recorded with the naked eyes.

In series [7] the test system is Staphylococcus aureus. As to the kind of experiment: MIC by twofold microdilution broth method. It counts as cell-based. The following applies: 24 h; for MIC: Staphylococcus aureus, read-out: MIC S. aureus. As for the experimental part:
as §1, §2

In series [8] the test system is Candida albicans MCC (F) 98001. Kind of series: MIC by twofold microdilution broth method. To be noted: 24 h; for MIC: Candida albicans, read-out: MIC C. albicans. It counts as cell-based. Here is the method: as §1, §2
On the technique in general: Dilution methods test growth across graded concentrations, often in twofold steps.

Where [9] appears, read: 100 mg/kg, listed as dihydrocoptisine.
The mark [10] stands for this setting: Sabouraud medium, 25° C., stock solution 20000 μg/ml.

Where “and” joins values, the source holds several entries; their conditions need not be identical. Equal entries are not always repeated. Structures can show the parent of a compound that is named as a salt. Where two headings read alike, the source gives them in different places. Marks after values point to notes of the source that are not given here.

For the compound `CCCCCOC(=O)Nc1nc(=O)n([C@@H]2O[C@H](C)[C@@H](O)[C@H]2O)cc1F` [Capecitabine], in series [1], the Spleen weight amounted to 0.228 ± 0.029 g and the “Tumor burden (relatively calculated value)” value is listed as 42.69 ± 10.26 piece. Also, in series [1] (listed as capecitabine), the Spleen weight was 0.228 ± 0.029 g and the “Tumor burden (relatively calculated value)” value is on record as 42.69±10.26 piece.

As for `ClC(Cl)c1c2c3c(ccc2cc2[n+]1CCc1cc4c(cc1-2)OCO4)OCO3.O=C([O-])/C=C\C(=O)O` [Compound 25, 8-dichloromethyl coptisine hydrogen maleate], the “amount of 95% ethanol solvent required for dissolving each gram” value (from here on “amount of 95% ethanol solvent required”) in series [2] amounted to 23 mL.

Consider `COc1ccc2cc3[n+](c(C(Cl)Cl)c2c1OC)CCc1cc2c(cc1-3)OCO2.O=C([O-])/C=C\C(=O)O` [Compound 27, 8-dichloromethyl berberine hydrogen maleate], for which the “amount of 95% ethanol solvent required” value in series [2] was found to be 5.8 mL. The “amount dissolved in each milliliter of water” value (“amount dissolved” for short) in series [3] is given as 3.83 mg.

As to `Cc1ccc(S(=O)(=O)[O-])cc1.ClC(Cl)c1c2c3c(ccc2cc2[n+]1CCc1cc4c(cc1-2)OCO4)OCO3` [Compound 29, 8-dichloromethyl coptisine tosylate], the “amount of 95% ethanol solvent required” value in series [2] turned out to be 24 mL.

As to `COc1ccc2cc3[n+](c(C(Cl)Cl)c2c1OC)CCc1cc2c(cc1-3)OCO2.Cc1ccc(S(=O)(=O)[O-])cc1` [Compound 31, 8-dichloromethyl berberine tosylate], the “amount of 95% ethanol solvent required” value in series [2] was found to be 7 mL. Moreover, the “amount dissolved” value in series [3] was determined as 5.0 mg.

Take `COc1ccc2cc3[n+](c(C(Cl)Cl)c2c1OC)CCc1cc2c(cc1-3)OCO2.O=S(=O)([O-])c1ccccc1` [Compound 47, 8-dichloromethyl berberine benzenesulfonate]: in series [2], the “amount of 95% ethanol solvent required” value was determined as 7 mL. Also, the “amount dissolved” value in series [3] came out at 6.45 mg.

With `C1=C2c3cc4c(cc3CCN2Cc2c1ccc1c2OCO1)OCO4` [Dihydrocoptisine, dihydrocoptisine], in series [4] (100 mg/kg), the Colon length is 6.23 ± 0.14^## cm, the DAI is 2.24 ± 0.97^##, the DAI inhibition rate was 44.03^## % and the “Percentage of colon contracture” value was 23.93^## %. In addition, in series [4] (100 mg/kg), the “body weight loss percentage” value is given as 18.77% and the “Body weight change rate” value was −18.77^# %. Moreover, the “Body weight (g) X ± SD End” value in series [4] (100 mg/kg once a day for eight days) was 18.43 ± 2.01 g. In addition, in series [4] (setting [9]), the “Percentage of colon contracture” value was 23.93%, the Colon length was 6.23 cm and the DAI inhibition rate stood at 44.03%.

For the compound `COc1ccc2c(c1)c(CC(=O)O)c(C)n2C(=O)c1ccc(Cl)cc1` [Indomethacin], the “Inhibition rate (ear swelling)” value in series [5] is given as 26.01^# %; in series [5] (listed as indomethacin) it was 26.01%. Moreover, the Degree of swelling in series [5] (4 hours after croton oil) was 70.26 ± 20.97 mg.

As a reminder, the MIC is the least concentration at which growth counts as inhibited. Take `C[C@H]1COc2c(N3CCN(C)CC3)c(F)cc3c(=O)c(C(=O)O)cn1c23` [Levofloxacin]: the MIC in series [6] (MHB medium, 37° C.) was under 1.95 µg/mL; in series [7] (MHB medium, 37° C.), under 1.95 µg/mL; in series [8] (setting [10]), over 250 µg/mL. For the same compound, the “MIC C. albicans” value in series [8] (setting [10]) is reported as “more than 250 ug/mL”.

In the case of `O=C(O)c1cc(/N=N/c2ccc(S(=O)(=O)Nc3ccccn3)cc2)ccc1O` [SASP, salazosulfapyridine], in series [4] (500 mg/kg), the Colon length is 5.90 cm and 5.90 ± 0.30^# cm; the DAI is given as 3.07 ± 1.01^#; the DAI inhibition rate is recorded as 23.33%; the “Percentage of colon contracture” value came to 28.43%. In addition, in series [4] (500 mg/kg), the “body weight loss percentage” value is reported as 27.70% and the “Body weight change rate” value is −27.70%. Further, in series [4] (500 mg/kg once a day for eight days), the “Body weight (g) X ± SD End” value is reported as 15.86 ± 1.58 g.

Turning to `COc1ccc2cc3[n+](cc2c1OC)CCc1cc2c(cc1-3)OCO2` [berberine hydrochloride], the MIC in series [6] (MHB medium, 37° C.) worked out at 250 µg/mL. Further, in series [7] (MHB medium, 37° C.), the “MIC S. aureus” value is 125 µg/mL and the MIC was found to be 125 µg/mL. In series [8] (setting [10]), the MIC is 250 µg/mL and the “MIC C. albicans” value worked out at 250 µg/mL. Moreover, the “amount dissolved” value in series [3] was under 2 mg.

`c1c2c(cc3c1OCO3)-c1cc3ccc4c(c3c[n+]1CC2)OCO4` [coptisine hydrochloride]: the MIC is over 250 µg/mL in series [6], over 250 µg/mL in series [7] and 250 µg/mL in series [8]. The “MIC S. aureus” value in series [7] (MHB medium, 37° C.) is on record as “more than 250 ug/mL”. In series [8] (setting [10]), the “MIC C. albicans” value turned out to be 250 µg/mL. Besides, in series [3], the “amount dissolved” value is reported as “less than 1 mg”.
